Series [1] relates to U87EGFRvIII cells. Briefly: Growth curves under erlotinib. The series is classed as cell-based, human. Conditions: 1 uM erlotinib. The source says: U87/EGFRV3 cells were provided by Prof.
A further series has as its system GBM39 cells. Briefly: SCBC multiplex metabolite/protein assay before and after erlotinib. The series is classed as cell-based, human. The conditions noted are these: 24 h erlotinib treatment (1 μM).
The test system of series [2] is U87EGFRvIII cells. As for the experimental part: A multiplex assay incorporating the glutamine uptake assay according to embodiments of the present invention was performed using a SCBC platform in U87 human glioblastoma cells having amplified epidermal growth factor receptor (EGFR) expression.
U87/EGFRV3 cells were provided by Prof. Paul S. Mischel (UCSD, San Diego, U.S.A.) and cultured in Dulbecco's modified eagle media (DMEM, Gibco, ThermoFisher Scientific, Grand Island, N.Y., U.S.A.) supplemented with 10% of fetal bovine serum (Thermo Fisher Scientific) and 100 U/mL of penicillin and streptomycin in a humidified 5% CO2 (v/v) incubator, at 37° C.
In order to better understand the integrated single cell metabolic/proteomic data, a simplified semi-quantitative metabolic model (FIG. 16A) was developed. The focus of this model includes the glycolysis pathway and the TCA cycle, which cover the major contributors of cellular energy generation. Glucose is used by cells for many tasks, but by combining the measurement of glucose uptake with measurements of those enzymes that process glucose for energy production and lactate production, an estimation may be made of the contributions of glucose to glycolysis and to the TCA cycle (FIGS. 16A-16B). It assumed that each glucose molecule consumed yields 8 ATP equivalents through glycolysis, and an additional 22 ATP equivalents through the TCA cycle. The numbers here are not the actual ATP production number, but an energy-currency conversion. The glycolysis part generates 2 ATP and 2 NADH molecules per glucose, and each NADH is ultimately worth 3 ATP, thus making 8 ATP total. […] For glutamine that is taken up by the cell, there are multiple possible outcomes. It can enter the TCA cycle to generate energy, or it can be exported in exchange for other amino acids, or participate in biosynthesis of glutathione and proteins, as examples. On this basis, glutamine may be considered as a special currency, which can either be used directly by the cell to produce energy, or in exchange of other necessary nutrients or to perform some crucial metabolic function. From a global point of view, the active uptake of glutamine reflects a metabolic demand from the cell, regardless how it is used. In order to have an integrated picture of the potential energy production from glutamine and glucose, we simply assume that all glutamine participates in the TCA cycle, so that each glutamine molecule affords 8.5 ATP equivalents. To calculate the energy production for each pathway, glucose and glutamine uptake levels as well as related metabolic enzyme levels are normalized into the range between 0 and 1 across all samples. Subsequently, the normalized analyte levels (a) were used and a steady-state approximation (FIG. 16E) to calculate the energy production rate for each step (FIG. 16B). Several energy indices were defined based on the model. The energy production index (EPI) assesses the total energy production rate through glucose and glutamine metabolism, while the energy source index (ESI) measures the energy contribution ratio between glucose and glutamine. The glycolysis index (GI) weighs the contribution of glycolysis in total glucose-based energy production, and depends upon glucose uptake, as well as the levels of phosphofructokinase (PFK) and pyruvate kinase isozyme M2 (PKM2). In addition to the energy indices, we use the cAMP and cGMP levels to define an energy frustration index (EFI), and use the GSH level to define a redox frustration index (RFI).

The subject of another series is U87/EGFRV3 cells. Briefly: Glutamine analog uptake (Cyclodextrin-Cy3 / Adamantane-BHQ2 FRET readout). Conditions: 1 mM analog, 20 min; with glutamine at 4° C. and 37° C., without glutamine at 37° C. The series is classed as cell-based, human. The protocol: FIG. 5B is a graph of cell uptake experiments using the immunofluorescence assay depicted in FIG. 2C to assay Compounds 1-8 as shown in FIG. 5A in the presence of glutamine at 4° C. (left bars) and 37° C. (middle bars), and in the absence of glutamine at 37° C. (right bars), according to embodiments of the present invention.
U87/EGFRV3 single cells were resuspended in DMEM media or glutamine-free DMEM media (Thermo Fisher Scientific) with 1 mM of glutamine analog and incubated at 37° C. or 4° C. for 20 min. Subsequently, the cells were collected via centrifugation (500 g, 5 min) and washed with cold PBS for three times. Then, the cells were lysed using cell lysis buffer (Cell Signaling, Boston, Mass., U.S.A.). To quantify the analog uptake, the lysate was mixed with an Adamantane-BHQ2 solution (100 nM in water) incubated on the glass slide with surface hybridized Cyclodextrin-Cy3-DNA at room temperature for 1 hr. the glass slide was then washed and spin dried. The fluorescence signal on the glass slide was read out using an Axon GenePix 4400A scanner.

The target of series [3] is T1, SLC1A5 neutral amino acid transporter (Homo sapiens, UniProt Q15758).
T1 construct: Compound 3 was further analyzed for uptake in U87 cells; endogenous in cells; host or cells: U87 (U87/EGFRV3) glioblastoma cells
T1 sequence (Q15758 1-541): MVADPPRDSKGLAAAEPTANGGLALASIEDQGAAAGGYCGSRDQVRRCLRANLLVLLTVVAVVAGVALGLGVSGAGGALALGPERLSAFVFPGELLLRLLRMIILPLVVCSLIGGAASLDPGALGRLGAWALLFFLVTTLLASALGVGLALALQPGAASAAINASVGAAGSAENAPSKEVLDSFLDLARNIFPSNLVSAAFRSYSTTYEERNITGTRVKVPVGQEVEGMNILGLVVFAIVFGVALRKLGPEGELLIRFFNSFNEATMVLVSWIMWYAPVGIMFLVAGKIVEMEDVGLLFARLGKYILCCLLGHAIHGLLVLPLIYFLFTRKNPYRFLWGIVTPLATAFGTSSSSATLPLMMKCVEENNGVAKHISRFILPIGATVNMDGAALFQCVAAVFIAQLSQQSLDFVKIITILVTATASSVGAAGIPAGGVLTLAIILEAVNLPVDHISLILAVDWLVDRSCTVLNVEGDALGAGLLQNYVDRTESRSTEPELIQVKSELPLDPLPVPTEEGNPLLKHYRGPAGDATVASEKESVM
The series is described as follows: Uptake of Compound 3 with the SLC1A5 transporter inhibited (sodium free, siRNA). It counts as cell-based. The conditions noted are these: U87 cells. The protocol:
In some embodiments of the present invention, a method for measuring glutamine uptake in a cell includes incubating the cell with a glutamine analog, followed by lysis of the cell, and quantification of the amount of the glutamine analog in the cell. […] These 8 glutamine analogs (adamantane conjugates) were assayed for their ability to substitute for glutamine. […] As such, the Compound 3 Ad-Glutamine analog is a validated substitute for glutamine.

The subject of a further series is U87 cells. The series is described as follows: Glutamine kit assay (Abcam, ab83389), cells incubated with Compound 3. The series is classed as cell-based, human. Conditions: U87 cells alone vs incubated with Compound 3.
A further series concerns cell growth. The series is described as follows: Cell toxicity of Compound 3 Ad-Glutamine analog (cell numbers normalized to control). The series is classed as cell-based. The conditions noted are these: indicated concentrations, FIG. 5F. The source says:
FIG. 5F is a graph showing cell toxicity of the Compound 3-Ad-Glutamine analog at the indicated concentrations with cell numbers normalized to the control sample, according to embodiments of the present invention.

In a further series the test system is GBM39 single cells. The series is described as follows: Validation of the Gluc-Bio uptake. The series is classed as cell-based, human. Conditions: 20 ug/mL Gluc-Bio, 20 min; 17.5 mM vs 25 mM glucose; 37° C. vs 4° C. As for the experimental part:
FIG. 4C is a graph of cell uptake experiments using the immunofluorescence assay depicted in FIG. 2B to assay Gluc-Bio uptake in GBM39 primary neurosphere cells at 37° C. in the presence of […] glucose and 25 mM glucose, and at 4° C. at 17.5 mM glucose as indicated, showing that Gluc-Bio competes with glucose, according to embodiments of the present invention.
GBM39 single cells were suspended in normal media (17.5 mM glucose) or high glucose media (25 mM glucose) at a concentration of 0.5 M cells/mL. These cells were incubated with 20 ug/mL of Gluc-Bio at 37° C. or 4° C. for 20 min. After incubation, cells were washed with cold PBS for three times and then lysed for quantifying the Gluc-Bio.

The subject of another series is hexokinase. Briefly: Coupled enzyme kinetics measurement (hexokinase/G6PDH, NADH absorption at 340 nm). It counts as biochemical. The source says:
Enzymes and substrate solutions from a glucose assay kit (Sigma-Aldrich) were used without purification. […] First, hexokinase converts glucose into glucose-6-phosphate, which consumes one equivalent of ATP. Then, the glucose-6-phosphate is converted to gluconate-6-phosphate by glucose-6-phosphate dehydrogenase (G6PDH). At the same time, this process converts NAD to NADH, which has a distinct absorption band at 340 nm. By continuously measuring the solution absorption, the kinetics of the first reaction can be indirectly monitored. […] This will result in a much slower generation of NADH. […] This proves that Gluc-Bio can bind to hexokinase and could be a substrate. […] In this experiment, the amount of ATP was controlled to be much less than that of glucose. If Gluc-Bio is simply an inhibitor and cannot be converted by hexokinase, it will not consume the ATP pool in the solution, and the final amount of NADH will be the same as that of glucose alone.

The record followed here is patent US11353448B2, “Methods and compositions for quantifying metabolites and proteins from single cells” (CALIFORNIA INSTITUTE OF TECHNOLOGY, priority 2015, dated 2022).

“Also recorded” adds a separate entry of the source. Like-named read-outs stand apart in the source and are kept apart here.

Method for GBM39 cells: Using a SCBC as shown in FIGS. 1A and 1B and further disclosed herein, simultaneous quantification of a panel of metabolites and proteins, including cAMP, cGMP, glucose uptake, glutathione along with phosphofructokinase (PFK), phospho-acetyl-CoA Caraboxylase (pACAC), phospho-liver kinase B1 (pLKB1), phosphoinositide-dependent kinase 1 (PDK), hexokinase 2 (HK2), pyruvate kinase M2 (PKM2), and phospho-carbohydrate kinase family protein (pPFKB2) was performed in single cells separated from the GBM39 neurosphere tumor model. […] For the drug treatment, 1 million cells were suspended in 10 mL of media and were cultured for several days to form neurospheres. […] The cells were then treated for designated periods of time and processed for tests. Cell loading. The upper channels were briefly rinsed with cell culture medium to minimize perturbation to the cells. […] The suspension was loaded into the SCBC device and compartmentalized into 310 isolated microchambers with single cell or defined number of cells in each chamber. The cell loading step results in a random distribution of different numbers of cells in different chambers, the statistical distribution can be adjusted by varying the loading concentration and the flow speed. […] The extra cells were washed away by 1×PBST. The images of each chamber were recorded using a microscope-CCD camera and used for subsequent cell counting.

Turning to `C#Cc1cccc(Nc2ncnc3cc(OCCOC)c(OCCOC)cc23)c1` [erlotinib], the “cell growth (number of cells as a function of days)” value with U87EGFRvIII cells [1] is recorded as “not inhibited; also recorded: does not inhibit”. In addition, in the series on GBM39 cells, the “activities of HK2” value is recorded as “sharply reduced”, the “level of GSH” value was “sharply reduced” and the “level of glucose uptake” value is listed as “sharply reduced”. Besides, the glutamine uptake result with U87EGFRvIII cells [2] (1 uM erlotinib) was “increased”. Moreover, in the series on U87EGFRvIII cells [2] (1 μM erlotinib), the glucose uptake entry was “repressed”; the “levels of PFK and PKM2” value was “increased”. Moreover, in the series with U87EGFRvIII cells [2] (higher dose erlotinib (10 μM)), the glucose uptake result is on record as “decreased”, the glutamine uptake result is “decreased” and the metabolic enzymes result was “repressed”. For the same compound, the “cellular energy production (EPI)” value in the series with U87EGFRvIII cells [2] (higher drug concentration (10 μM)) is “inhibits cellular energy production”.
`NC(CCCNC(=O)C12CC3CC(CC(C3)C1)C2)C(=O)O` (stereo not drawn) [Compound 3, 5-(adamantane-1-carboxamido)-2-aminopentanoic acid]: the “cell uptake of glutamine analog: dependence on temperature and on glutamine” value with U87/EGFRV3 cells was “temperature-dependency and glutamine-dependency”. Further, the “cell uptake of Compound 3” value in series [3] (siRNA knock-down of SLC1A5) is “inhibition of cell uptake”. Also, the “Compound 3 fluorescence (uptake)” value in series [3] (sodium free conditions) is listed as “inhibition of Compound 3 fluorescence (uptake)”. In addition, the “competition with cellular glutamine (absorbance)” value in the series with U87 cells is “competes with the cellular glutamine”. Also, the “cell growth / cell toxicity” value in the series on cell growth was “does not inhibit cell growth”.
For `N[C@@H](CC(=O)NC12CC3CC(CC(C3)C1)C2)C(=O)O` [Compound 8, N4-(adamantan-1-yl)asparagine], the “cell uptake of glutamine analog: dependence on temperature and on glutamine” value in the series on U87/EGFRV3 cells was “temperature-dependency and glutamine-dependency”.
For the compound `O=C(CCCC[C@@H]1SC[C@@H]2NC(=O)N[C@@H]21)N[C@H]1C(O)O[C@H](CO)[C@@H](O)[C@@H]1O` (stereo partly drawn) [Gluc-Bio], the “uptake of Gluc-Bio” value in the series on GBM39 single cells is “inhibited by increasing the extracellular glucose concentration and by decreasing the temperature”. Also, the “generation of NADH in the presence of Gluc-Bio” value in the series on hexokinase (0.5 mM glucose and 0.5 mM Gluc-Bio vs 0.5 mM glucose alone) is “much slower than that of glucose alone”. In the series on hexokinase (ATP much less than glucose, addition of Gluc-Bio), the “final amount of NADH generated” value is “less NADH was generated”. In addition, the substrate for hexokinase result in the series with hexokinase (conclusion from both experiments) is recorded as “is a substrate for hexokinase”.
